For 18 molecules, inhibition results are on record in patent publication US8680159B2, “Bradykinin 1 receptor modulating compounds” (Gruenenthal GmbH, priority 2010, dated 2014).

By inhibition is commonly meant the change of the read-out against control, counted positive when it falls.

The first test deals with T1, B1R receptor of the rat (CHO K1 cells stably transfected with the B1R gene of the rat) (Rattus norvegicus, UniProt P97583).
T1 construct: expressed in transfected cells; host or cells: CHO K1 cells (Chinese hamster ovary), stably transfected
T1 sequence (P97583 1-337): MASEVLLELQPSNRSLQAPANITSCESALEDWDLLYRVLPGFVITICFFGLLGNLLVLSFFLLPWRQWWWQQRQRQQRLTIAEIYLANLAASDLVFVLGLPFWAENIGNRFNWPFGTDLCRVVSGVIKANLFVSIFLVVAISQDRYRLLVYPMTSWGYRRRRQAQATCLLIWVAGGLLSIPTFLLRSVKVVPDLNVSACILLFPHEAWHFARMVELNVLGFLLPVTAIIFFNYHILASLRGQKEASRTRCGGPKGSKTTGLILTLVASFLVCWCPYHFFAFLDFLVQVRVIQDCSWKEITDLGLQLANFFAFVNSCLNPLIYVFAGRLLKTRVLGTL
Briefly: Functional study on the bradykinin receptor 1 (B1R), Ca2+ fluorescence (Fluo-4) FLIPR/Novostar assay, rB1R cells. Type of test: cell-based. The following applies: CHO-K1, 10 μM, library compounds CC_H, read-out: % Inhibition (r-B1R) at 10 μM. Here is the method:
The agonistic or antagonistic action of substances can be quantified on the bradykinin receptor 1 (B1R) of the species human and rat using ectopically expressing cell lines (CHO K1 cells) and with the aid of a Ca^2+-sensitive dye (Fluo-4) using a fluorescent imaging plate reader (FLIPR). The indication in % activation is based on the Ca^2+ signal after addition of Lys-Des-Arg^9-bradykinin (0.5 nM) or Des-Arg^9-bradykinin (100 nM). Antagonists lead to suppression of the Ca^2+ influx after the addition of the agonist. % Inhibition compared with the maximum achievable inhibition is indicated.
The agonistic or antagonistic action of substances can be determined on the bradykinin receptor 1 (B1R) of the species human and rat using the following assay. According to this assay, the increase in intracellular Ca^2+ following administration of a B1R agonist is quantified with the aid of a Ca^2+-sensitive dye (Fluo-4 type, Molecular Probes Europe BV, Leiden, Netherlands) using a Fluorescent Imaging Plate Reader (FLIPR, Molecular Devices, Sunnyvale, USA) and/or using a Novostar (BMG Labtech GmbH, Offenburg, Germany).
Chinese hamster ovary cells (CHO K1 cells) which have been stably transfected with the human B1R gene (hB1R cells) or with the B1R gene of the rat (rB1R cells) are used. For functional studies, the cells are plated out on black 96-well plates having a clear base (BD Biosciences, Heidelberg, Germany or Greiner, Frickenhausen, Germany) in a density of 20,000-35,000 cells/well. The cells are left overnight at 37° C. and with 5% CO2 in culture medium (hB1R cells: Nutrient Mixture Ham's F12, Gibco Invitrogen GmbH, Karlsruhe, Germany or DMEM, Sigma-Aldrich, Taufkirchen, Germany; rB1R cells: D-MEM/F12, Gibco Invitrogen GmbH, Karlsruhe, Germany), with 10 vol. % FBS (fetal bovine serum, Gibco Invitrogen GmbH, Karlsruhe, Germany or PAN Biotech GmbH, Aidenbach, Germany). On the following day, the cells are loaded for 60 minutes at 37° C. with 2.13 μM Fluo-4 (Molecular Probes Europe BV, Leiden, Netherlands) in HBSS buffer (Hank's buffered saline solution, Gibco Invitrogen GmbH, Karlsruhe, Germany) […] (Sigma-Aldrich, Taufkirchen, Germany) and 10 mM HEPES (Sigma-Aldrich, Taufkirchen, Germany). The plates are then washed twice with HBSS buffer, and HBSS buffer additionally containing 0.1% BSA (bovine serum albumin; Sigma-Aldrich, Taufkirchen, Germany), 5.6 mM glucose and 0.05% gelatin (Merck KGaA, Darmstadt, Germany) is added to the plates. After incubation for a further 20 minutes at room temperature, the plates are inserted into the FLIPR or Novostar for Ca^2+ measurement. Alternatively, washing is carried out with buffer A (15 mM HEPES, 80 mM NaCl, 5 mM KCl, 1.2 mM CaCl2, 0.7 mM MgSO4, 2 g/l glucose, 2.5 mM probenecid) followed by loading with buffer A with added 2.5 μM Fluo-4 and 0.025% Pluronic F127 (Sigma-Aldrich, Taufkirchen, Germany). The cells are then washed twice with buffer A and incubated for 30 minutes at room temperature with buffer A additionally containing 0.05% BSA and 0.05% gelatin and are then inserted into the FLIPR or Novostar for Ca^2+ measurement. The Ca^2+-dependent fluorescence is measured before and after the addition of substances (λex=488 nm, λem=540 nm). Quantification is carried out by measuring the highest fluorescence intensity (FC, fluorescence counts) over time.
The FLIPR protocol consists of 2 substance additions, which are pipetted in the FLIPR. In the case of measurements using the Novostar, only the second substance addition is pipetted in the device. Both devices measure the fluorescence intensity over time. Test substances (10 μM) are first pipetted onto the cells and the intracellular Ca^2+ increase is compared with the control (hB1R: Lys-Des-Arg^9-bradykinin>=50 nM; rB1R: Des-Arg^9-bradykinin>=1 μM). This gives the % activation, based on the Ca^2+ signal after addition of Lys-Des-Arg^9-bradykinin (>=50 nM) or Des-Arg^9-bradykinin (>=1 μM). […]
As for `CN(C)C(=O)c1cc(N2CCC(N(C)C(=O)c3ccc4c(c3)C(NC(=O)CCC3CCCC3)CC4)CC2)ccn1` (stereo not drawn) [CC_H-615, 4-[4-[[3-(3-Cyclopentyl-propanoylamino)-2,3-dihydro-1H-inden-5-carbonyl]-methyl-amino]-piperidin-1-yl]-N,N-dimethyl-pyridine-2-carboxylic acid amide], the inhibition at 10 µM turned out to be 65%. On the same count and under the same terms, the figure for `CN(C(=O)c1ccc2c(c1)C(NC(=O)CCC1CCCC1)CC2)C1CCN(c2ncncc2F)CC1` (stereo not drawn) [CC_H-632, 3-(3-Cyclopentyl-propanoylamino)-N-[1-(5-fluoro-pyrimidin-4-yl)-piperidin-4-yl]-N-methyl-2,3-dihydro-1H-indene-5-carboxylic acid amide] is 95%.

Staying with this test, now noted: CHO-K1, 10 μM, read-out: % Inhibition (r-B1R) at 10 μM.
For `CN(C(=O)c1ccc2c(c1)C(NC(=O)c1c(Cl)cccc1C(F)(F)F)CC2(C)C)C1CCN(c2ccncc2)CC1` (stereo not drawn) [CC_H-225, 3-[[2-Chloro-6-(trifluoromethyl)-benzoyl]amino]-N,1,1-trimethyl-N-(1-pyridin-4-yl-piperidin-4-yl)-2,3-dihydro-indene-5-carboxylic acid amide], the inhibition at 10 µM came out at 112%.

Consider `Cc1cc(N2CCC(N(C)C(=O)c3ccc4c(c3)C(N(C)C(=O)CC(C)C)CC4)CC2)cc(C)n1` (stereo not drawn) [CC_H-352, N-[1-(2,6-Dimethyl-pyridin-4-yl)-piperidin-4-yl]-N-methyl-3-[methyl-(3-methyl-butanoyl)-amino]-2,3-dihydro-1H-indene-5-carboxylic acid amide], for which the inhibition at 10 µM is 110%. On the same count and under the same terms, the figure for `Cc1cc(N2CCC(N(C)C(=O)c3ccc4c(c3)C(NC(=O)Nc3ccccc3Cl)CC4)CC2)cc(C)n1` (stereo not drawn) [CC_H-304, 3-[[(2-Chlorophenyl)-carbamoyl]amino]-N-[1-(2,6-dimethyl-pyridin-4-yl)-piperidin-4-yl]-N-methyl-2,3-dihydro-1H-indene-5-carboxylic acid amide] is 98%; for `Cc1ccc(F)c(C(=O)NC2CCc3ccc(C(=O)N(C)C4CCN(c5ccncc5)CC4)cc32)c1Cl` (stereo not drawn) [CC_H-202, 3-[(2-Chloro-6-fluoro-3-methyl-benzoyl)amino]-N-methyl-N-(1-pyridin-4-yl-piperidin-4-yl)-2,3-dihydro-1H-indene-5-carboxylic acid amide] it is 111%; for `COCC(=O)N(C)C1CCc2ccc(C(=O)N(C)C3CCN(c4cc(C)nc(C)c4)CC3)cc21` (stereo not drawn) [CC_H-333, N-[1-(2,6-Dimethyl-pyridin-4-yl)-piperidin-4-yl]-3-[(2-methoxy-acetyl)-methyl-amino]-N-methyl-2,3-dihydro-1H-indene-5-carboxylic acid amide] it is 84%. Same read-out and setting: the figure for `CCCS(=O)(=O)NC1CCc2ccc(C(=O)N(C)C3CCN(c4ccc5cnccc5c4)CC3)cc21` (stereo not drawn) [CC_H-378, N-(1-Isoquinolin-6-yl-piperidin-4-yl)-N-methyl-3-[(propylsulfonyl)amino]-2,3-dihydro-1H-indene-5-carboxylic acid amide] is 101%. On the same count and under the same terms, to `Cc1cc(N2CCC(N(C)C(=O)c3ccc4c(c3)C(NC(=O)Nc3ccc(Cl)cc3Cl)CC4)CC2)cc(C)n1` (stereo not drawn) [CC_H-310, 3-[[(2,4-Dichlorophenyl)-carbamoyl]amino]-N-[1-(2,6-dimethyl-pyridin-4-yl)-piperidin-4-yl]-N-methyl-2,3-dihydro-1H-indene-5-carboxylic acid amide] belongs 101%; to `Cc1cc(N2CCC(N(C)C(=O)c3ccc4c(c3)C(NC(=O)CC(C)(C)C)CC4)CC2)cc(C)n1` (stereo not drawn) [CC_H-299, 3-(3,3-Dimethyl-butanoylamino)-N-[1-(2,6-dimethyl-pyridin-4-yl)-piperidin-4-yl]-N-methyl-2,3-dihydro-1H-indene-5-carboxylic acid amide], 110%. With `COCC(=O)NC1CCCc2ccc(C(=O)N(C)C3CCN(c4ccncc4)CC3)cc21` (stereo not drawn) [CC_H-252, 8-[(2-Methoxy-acetyl)amino]-N-methyl-N-(1-pyridin-4-yl-piperidin-4-yl)-5,6,7,8-tetrahydro-naphthalene-2-carboxylic acid amide], the inhibition at 10 µM was determined as 107%. For `CN(C(=O)c1ccc2c(c1)C(NC(=O)Nc1ccccc1Cl)CCC2)C1CCN(c2ccncc2)CC1` (stereo not drawn) [CC_H-255, 8-[[(2-Chlorophenyl)-carbamoyl]amino]-N-methyl-N-(1-pyridin-4-yl-piperidin-4-yl)-5,6,7,8-tetrahydro-naphthalene-2-carboxylic acid amide], the inhibition at 10 µM was found to be 104%. Same read-out and setting: to `CN(C(=O)c1ccc2c(c1)C(N(C)C(=O)CC(C)(C)C)CC2)C1CCN(c2ccncc2)CC1` (stereo not drawn) [CC_H-213, 3-(3,3-Dimethyl-butanoyl-methyl-amino)-N-methyl-N-(1-pyridin-4-yl-piperidin-4-yl)-2,3-dihydro-1H-indene-5-carboxylic acid amide] belongs 110%; to `Cc1cc(N2CCC(N(C)C(=O)c3ccc4c(c3)C(N(C)C(=O)c3cc(C(F)(F)F)ccc3Cl)CC4)CC2)cc(C)n1` (stereo not drawn) [CC_H-326, 3-[[2-Chloro-5-(trifluoromethyl)-benzoyl]-methyl-amino]-N-[1-(2,6-dimethyl-pyridin-4-yl)-piperidin-4-yl]-N-methyl-2,3-dihydro-1H-indene-5-carboxylic acid amide], 112%; to `Cc1ccc(NC(=O)N(C)C2CCc3ccc(C(=O)N(C)C4CCN(c5cc(C)nc(C)c5)CC4)cc32)c(C)c1` (stereo not drawn) [CC_H-347, 3-[[(2,4-Dimethyl-phenyl)-carbamoyl]-methyl-amino]-N-[1-(2,6-dimethyl-pyridin-4-yl)-piperidin-4-yl]-N-methyl-2,3-dihydro-1H-indene-5-carboxylic acid amide], 57%. On the same count and under the same terms, the figure for `CN(C(=O)c1ccc2c(c1)C(NC(=O)C1CC1)CC2(C)C)C1CCN(c2ccncc2)CC1` (stereo not drawn) [CC_H-226, 3-(Cyclopropanecarbonylamino)-N,1,1-trimethyl-N-(1-pyridin-4-yl-piperidin-4-yl)-2,3-dihydro-indene-5-carboxylic acid amide] is 99%. For the molecule `CN(C(=O)c1ccc2c(c1)C(NC(=O)c1cccc(C(F)(F)F)c1Cl)CCO2)C1CCN(c2ccncc2)CC1` (stereo not drawn) [CC_H-279, 4-[[2-Chloro-3-(trifluoromethyl)-benzoyl]amino]-N-methyl-N-(1-pyridin-4-yl-piperidin-4-yl)-3,4-dihydro-2H-chromene-6-carboxylic acid amide], the inhibition at 10 µM was determined as 111%. On the same count and under the same terms, the figure for `CN(C(=O)c1ccc2c(c1)C(N(C)C(=O)c1cccc(C(F)(F)F)c1Cl)CC2)C1CCN(c2ccncc2)CC1` (stereo not drawn) [CC_H-216, 3-[[2-Chloro-3-(trifluoromethyl)-benzoyl]-methyl-amino]-N-methyl-N-(1-pyridin-4-yl-piperidin-4-yl)-2,3-dihydro-1H-indene-5-carboxylic acid amide] is 110%.
